Molecular target: Human factor D (Homo sapiens (Human), UniProt P00746)
Assay: Human Factor D Assay
Type: biochemical
Settings: not given

Sequence of Human factor D (P00746 26-253): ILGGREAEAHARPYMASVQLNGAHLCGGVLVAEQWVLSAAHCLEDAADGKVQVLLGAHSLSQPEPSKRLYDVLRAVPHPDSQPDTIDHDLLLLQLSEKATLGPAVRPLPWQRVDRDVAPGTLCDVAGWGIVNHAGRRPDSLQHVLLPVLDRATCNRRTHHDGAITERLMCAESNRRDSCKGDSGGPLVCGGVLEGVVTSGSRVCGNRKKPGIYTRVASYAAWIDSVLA

SMILES | IC50 [nM]
CC(=O)c1cn(CC(=O)N2C[C@H](F)C[C@H]2C(=O)Nc2ccccc2-n2nccc2C)c2ccc(Nc3cncnc3)cc12 [Compound 30, (2S,4R)-1-(2-(3-acetyl-5-(pyrimidin-5-ylamino)-1H-indol-1-yl)acetyl)-4-fluoro-N-(2-(5-methyl-1H-pyrazol-1-yl)phenyl)pyrrolidine-2-carboxamide] | 1000 to 10000
CC(=O)c1cn(CC(=O)N2C[C@H](F)C[C@H]2C(=O)Nc2nnc(-c3ccccc3Cl)s2)c2ccc(Nc3cncnc3)cc12 [Compound 34, (2S,4R)-1-(2-(3-acetyl-5-(pyrimidin-5-ylamino)-1H-indol-1-yl)acetyl)-N-(5-(2-chlorophenyl)-1,3,4-thiadiazol-2-yl)-4-fluoropyrrolidine-2-carboxamide] | 1000 to 10000
CC(=O)c1cn(CC(=O)N2C[C@H](F)C[C@H]2C(=O)N[C@H]2CCCC[C@@H]2O)c2ccc(Nc3cncnc3)cc12 [Compound 36, (2S,4R)-1-(2-(3-acetyl-5-(pyrimidin-5-ylamino)-1H-indol-1-yl)acetyl)-4-fluoro-N-((1S,2S)-2-hydroxycyclohexyl)pyr-rolidine-2-carboxamide] | 1000 to 10000
CC(=O)c1cn(CC(=O)N2C[C@H](F)C[C@H]2C(=O)Nc2cccc(Cl)c2-n2cncn2)c2ccc(Nc3cncnc3)cc12 [Compound 37, (2S,4R)-1-(2-(3-acetyl-5-(pyrimidin-5-ylamino)-1H-indol-1-yl)acetyl)-N-(3-chloro-2-(1H-1,2,4-triazol-1-yl)phenyl)-4-fluoropyrrolidine-2-carboxamide] | 1000 to 10000
CC(=O)c1cn(CC(=O)N2C[C@H](F)C[C@H]2C(=O)Nc2ccccc2N2CCOC2=O)c2ccc(Nc3cncnc3)cc12 [Compound 40, (2S,4R)-1-(2-(3-acetyl-5-(pyrimidin-5-ylamino)-1H-indol-1-yl)acetyl)-4-fluoro-N-(2-(2-oxooxazolidin-3-yl)phenyl)pyrrolidine-2-carboxamide] | 1000 to 10000

Same assay, conditions: human factor D 80 nM, substrate Z-L-Lys-SBz1 and DTNB 100 μM each, pH 7.5; read-out: IC50

SMILES | IC50 [nM]
CC(=O)c1cn(CC(=O)N2C[C@H](F)C[C@H]2C(=O)Nc2cncc(Cl)c2)c2ccc(Nc3cncnc3)cc12 [Compound 22, (2S,4R)-1-(2-(3-acetyl-5-(pyrimidin-5-ylamino)-1H-indol-1-yl)acetyl)-N-(5-chloropyridin-3-yl)-4-fluoropyrrolidine-2-carboxamide] | < 1000
CCN1Cc2ccc(NC(=O)[C@@H]3C[C@@H](F)CN3C(=O)Cn3cc(C(C)=O)c4cc(Nc5cncnc5)ccc43)cc2C1=O [Compound 23, (2S,4R)-1-(2-(3-acetyl-5-(pyrimidin-5-ylamino)-1H-indol-1-yl)acetyl)-N-(2-ethyl-3-oxoisoindolin-5-yl)-4-fluoropyrrolidine-2-carboxamide] | < 1000
CC(=O)c1cn(CC(=O)N2C[C@H](F)C[C@H]2C(=O)Nc2cccc3c2OC(C)(C)C3)c2ccc(Nc3cncnc3)cc12 [Compound 24, (2S,4R)-1-(2-(3-acetyl-5-(pyrimidin-5-ylamino)-1H-indol-1-yl)acetyl)-N-(2,2-dimethyl-2,3-dihydrobenzofuran-7-yl)-4-fluoropyrrolidine-2-carboxamide] | < 1000
CC(=O)c1cn(CC(=O)N2C[C@H](F)C[C@H]2C(=O)Nc2ccc3cn[nH]c3c2)c2ccc(Nc3cncnc3)cc12 [Compound 25, (2S,4R)-1-(2-(3-acetyl-5-(pyrimidin-5-ylamino)-1H-indol-1-yl)acetyl)-4-fluoro-N-(1H-indazol-6-yl)pyrrolidine-2-carboxamide] | < 1000
CC(=O)c1cn(CC(=O)N2C[C@H](F)C[C@H]2C(=O)Nc2ccc(F)c(-c3nnc4n3CCCCC4)c2)c2ccc(Nc3cncnc3)cc12 [Compound 26, (2S,4R)-1-(2-(3-acetyl-5-(pyrimidin-5-ylamino)-1H-indol-1-yl)acetyl)-4-fluoro-N-(4-fluoro-3-(6,7,8,9-tetrahydro-5H-[1,2,4]triazolo[4,3-a]azepin-3-yl)phenyl)pyrrolidine-2-carboxamide] | < 1000
CC(=O)c1cn(CC(=O)N2C[C@H](F)C[C@H]2C(=O)NC2CCCc3nc(-c4ccc(F)cc4)sc32)c2ccc(Nc3cncnc3)cc12 (stereo partly drawn) [Compound 28, (2S,4R)-1-(2-(3-acetyl-5-(pyrimidin-5-ylamino)-1H-indol-1-yl)acetyl)-4-fluoro-N-(2-(4-fluorophenyl)-4,5,6,7-tetrahydrobenzo[d]thiazol-7-yl)pyrrolidine-2-carboxamide] | > 10000
CC(=O)c1cn(CC(=O)N2C[C@H](F)C[C@H]2C(=O)Nc2nc(-c3ccccc3Cl)ns2)c2ccc(Nc3cncnc3)cc12 [Compound 29, (2S,4R)-1-(2-(3-acetyl-5-(pyrimidin-5-ylamino)-1H-indol-1-yl)acetyl)-N-(3-(2-chlorophenyl)-1,2,4-thiadiazol-5-yl)-4-fluoropyrrolidine-2-carboxamide] | < 1000
CC(=O)c1cn(CC(=O)N2C[C@H](F)C[C@H]2C(=O)Nc2cccnc2)c2ccc(Nc3cncnc3)cc12 [Compound 31, (2S,4R)-1-(2-(3-acetyl-5-(pyrimidin-5-ylamino)-1H-indol-1-yl)acetyl)-4-fluoro-N-(pyridin-3-yl)pyrrolidine-2-carboxamide] | < 1000
CC(=O)c1cn(CC(=O)N2C[C@H](F)C[C@H]2C(=O)Nc2ccccc2-c2nc3ccccc3s2)c2ccc(Nc3cncnc3)cc12 [Compound 32, (2S,4R)-1-(2-(3-acetyl-5-(pyrimidin-5-ylamino)-1H-indol-1-yl)acetyl)-N-(2-(benzo[d]thiazol-2-yl)phenyl)-4-fluoropyrrolidine-2-carboxamide] | > 10000
CC(=O)c1cn(CC(=O)N2C[C@H](F)C[C@H]2C(=O)Nc2cncc(Cl)n2)c2ccc(Nc3cncnc3)cc12 [Compound 33, (2S,4R)-1-(2-(3-acetyl-5-(pyrimidin-5-ylamino)-1H-indol-1-yl)acetyl)-N-(6-chloropyrazin-2-yl)-4-fluoropyrrolidine-2-carboxamide] | < 1000
CC(=O)c1cn(CC(=O)N2C[C@H](F)C[C@H]2C(=O)Nc2cc3c(cc2F)OC(F)(F)O3)c2ccc(Nc3cncnc3)cc12 [Compound 35, (2S,4R)-1-(2-(3-acetyl-5-(pyrimidin-5-ylamino)-1H-indol-1-yl)acetyl)-4-fluoro-N-(2,2,6-trifluorobenzo[d][1,3]dioxol-5-yl)pyrrolidine-2-carboxamide] | < 1000
CC(=O)c1cn(CC(=O)N2C[C@H](F)C[C@H]2C(=O)Nc2ccc3[nH]c(C)c(C)c3c2)c2ccc(Nc3cncnc3)cc12 [Compound 38, (2S,4R)-1-(2-(3-acetyl-5-(pyrimidin-5-ylamino)-1H-indol-1-yl)acetyl)-N-(2,3-dimethyl-1H-indol-5-yl)-4-fluoropyrrolidine-2-carboxamide] | < 1000
CC(=O)c1cn(C(=O)CN2C[C@H](F)C[C@H]2C(=O)Nc2nnc(-c3ccc(Cl)c(Cl)c3)s2)c2ccc(Nc3cncnc3)cc12 [Compound 39, (2S,4R)-1-(2-(3-acetyl-5-(pyrimidin-5-ylamino)-1H-indol-1-yl)-2-oxoethyl)-N-(5-(3,4-dichlorophenyl)-1,3,4-thiadiazol-2-yl)-4-fluoropyrrolidine-2-carboxamide] | > 10000
CC(=O)c1cn(CC(=O)N2C[C@H](F)C[C@H]2C(=O)Nc2cc(C)nc3nc(C(F)(F)F)nn23)c2ccc(Nc3cncnc3)cc12 [Compound 41, (2S,4R)-1-(2-(3-acetyl-5-(pyrimidin-5-ylamino)-1H-indol-1-yl)acetyl)-4-fluoro-N-(5-methyl-2-(trifluoromethyl)-[1,2,4]triazolo[1,5-a]pyrimidin-7-yl)pyrrolidine-2-carboxamide] | > 10000
CC(=O)c1cn(CC(=O)N2C[C@H](F)C[C@H]2C(=O)NC2CCCN(c3cnn(C)c3)C2)c2ccc(Nc3cncnc3)cc12 (stereo partly drawn) [Compound 42, (2S,4R)-1-(2-(3-acetyl-5-(pyrimidin-5-ylamino)-1H-indol-1-yl)acetyl)-4-fluoro-N-(1-(1-methyl-1H-pyrazol-4-yl)piperidin-3-yl)pyrrolidine-2-carboxamide] | < 1000
CC(=O)c1cn(CC(=O)N2C[C@H](F)C[C@H]2C(=O)NCc2cccnc2)c2ccc(Nc3cncnc3)cc12 [Compound 43, (2S,4R)-1-(2-(3-acetyl-5-(pyrimidin-5-ylamino)-1H-indol-1-yl)acetyl)-4-fluoro-N-(pyridin-3-ylmethyl)pyrrolidine-2-carboxamide] | < 1000
CC(=O)c1cn(CC(=O)N2C[C@H](F)C[C@H]2C(=O)Nc2ncc(Br)cn2)c2ccc(Nc3cncnc3)cc12 [Compound 44, (2S,4R)-1-(2-(3-acetyl-5-(pyrimidin-5-ylamino)-1H-indol-1-yl)acetyl)-N-(5-bromopyrimidin-2-yl)-4-fluoropyrrolidine-2-carboxamide] | < 1000
CC(=O)c1cn(CC(=O)N2C[C@H](F)C[C@H]2C(=O)Nc2ccc(OCc3ccccc3)cn2)c2ccc(Nc3cncnc3)cc12 [Compound 45, (2S,4R)-1-(2-(3-acetyl-5-(pyrimidin-5-ylamino)-1H-indol-1-yl)acetyl)-N-(5-(benzyloxy)pyridin-2-yl)-4-fluoropyrrolidine-2-carboxamide] | < 1000
CC(=O)c1cn(CC(=O)N2C[C@H](F)C[C@H]2C(=O)Nc2ccc3ccccc3c2)c2ccc(Nc3cncnc3)cc12 [Compound 46, (2S,4R)-1-(2-(3-acetyl-5-(pyrimidin-5-ylamino)-1H-indol-1-yl)acetyl)-4-fluoro-N-(naphthalen-2-yl)pyrrolidine-2-carboxamide] | < 1000
CC(=O)c1cn(CC(=O)N2C[C@H](F)C[C@H]2C(=O)Nc2cncc(Br)n2)c2ccc(Nc3cncnc3)cc12 [Compound 47, (2S,4R)-1-(2-(3-acetyl-5-(pyrimidin-5-ylamino)-1H-indol-1-yl)acetyl)-N-(6-bromopyrazin-2-yl)-4-fluoropyrrolidine-2-carboxamide] | < 1000
CC(=O)c1cn(CC(=O)N2C[C@H](F)C[C@H]2C(=O)Nc2cccc(Cl)c2C(F)(F)F)c2ccc(Nc3cncnc3)cc12 [Compound 48, (2S,4R)-1-(2-(3-acetyl-5-(pyrimidin-5-ylamino)-1H-indol-1-yl)acetyl)-N-(3-chloro-2-(trifluoromethyl)-phenyl)-4-fluoropyrrolidine-2-carboxamide] | < 1000

Reference: patent US9598446B2, “Amino compounds for treatment of complement mediated disorders” (priority 2014, dated 2017)
